According to patent publication US20240122179A1, “AUXINIC HERBICIDES AND METHODS OF USE THEREOF” (CORTEVA AGRISCIENCE LLC, priority 2021, published 2024):
Read-outs that look alike come from different tables or passages of the source.

Tests used:
Assay in all cases: Postemergence herbicide evaluation, percent reduction in plant size vs untreated control, 21 days after treatment
[1] = test system: Ambrosia artemisiifolia (AMBEL); format: in vivo, Ambrosia artemisiifolia (common ragweed); conditions: post-emergence, 504 h, AMBEL, postemergence, read-out: Control/Injury; for pest or weed control at 140 g/ha: rate 140 g ae/ha; for pest or weed control at 280 g/ha: rate 280 g ae/ha
Method in brief: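 Greenhouse-grown plants (25–28 °C, 16 h light) were sprayed postemergence at the 2–8 leaf stage with 140 or 280 g ae/ha in acetone/DMSO-based spray solution with crop oil and surfactant, at 187 L/ha by track sprayer. There were 3–4 replicates. Plant size was measured 21 days after treatment versus untreated plants.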

[2] = test system: Conyza canadensis (L.) (ERICA); format: in vivo, Conyza canadensis (L.) (Horseweed); conditions: Erigeron canadensis, post-emergence, 504 h, ERICA, postemergence, read-out: Control/Injury; for pest or weed control at 140 g/ha: rate 140 g ae/ha; for pest or weed control at 280 g/ha: rate 280 g ae/ha
Method in brief: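 Horseshoe-weed (horseweed) seedlings at 2 to 8 leaf stage in greenhouse (25-28° C, 16 h light), sprayed postemergence at 140 or 280 g ae/ha in acetone/DMSO-based spray solution, 187 L/ha track-sprayer. Randomized complete block, 3-4 replicates; plant size measured 21 days after treatment as percent reduction vs untreated controls.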

Kochia scoparia (KCHSC) = format: in vivo; conditions: Bassia scoparia, post-emergence, 504 h, KCHSC, postemergence, read-out: Control/Injury; for pest or weed control at 140 g/ha: rate 140 g ae/ha; for pest or weed control at 280 g/ha: rate 280 g ae/ha
Method in brief: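 Greenhouse-grown plants (25-28 °C, 16 h light) at the 2 to 8 leaf stage were track-sprayed postemergence at 140 or 280 g ae/ha in acetone/DMSO-based spray solution with crop oil and surfactant, at 187 L/ha, in 3-4 randomized replicates.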

[3] = test system: Amaranthus palmeri (AMAPA); format: in vivo, Amaranthus palmeri (Palmer amaranth); conditions: post-emergence, 504 h, postemergence, read-out: Control/Injury; for pest or weed control at 140 g/ha: rate 140 g ae/ha; for pest or weed control at 280 g/ha: rate 280 g ae/ha
Method in brief: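 Greenhouse-grown Palmer amaranth (25 to 28° C, 16 h light) sprayed postemergence at the 2 to 8 leaf stage with 140 or 280 g ae/ha in acetone/DMSO-based solution containing crop oil concentrate, 187 L/ha by track sprayer. Three to four replicates; plant size measured 21 days after treatment as percent reduction versus untreated control.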

Amaranthus rudis (AMATA) = format: in vivo, Amaranthus rudis (tall water hemp); conditions: Amaranthus tuberculatus, post-emergence, 504 h, AMATA, postemergence, read-out: Control/Injury; for pest or weed control at 140 g/ha: rate 140 g ae/ha; for pest or weed control at 280 g/ha: rate 280 g ae/ha
Method in brief: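 Greenhouse-grown tall waterhemp (25-28° C, 16 h light) at the 2-8 leaf stage, treated by track sprayer at 187 L/ha with compound at 140 or 280 g ae/ha in acetone/DMSO-based spray solution with crop oil and surfactant. 3-4 replicates per treatment, randomized complete block; plant size reduction versus untreated control measured 21 days after treatment.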

[4] = percent reduction vs untreated, 21 days after treatment
[5] = percent reduction vs untreated control, 21 days after treatment
[6] = R-AMAPA, percent reduction vs untreated control, 21 days after treatment

## COc1c(Cl)ccc(Cl)c1C(=O)Oc1noc2ccccc12 [Compound A-122]
[1]
  pest or weed control at 140 g/ha: 73%
  pest or weed control at 280 g/ha: 97%
[2]
  pest or weed control at 140 g/ha: 95%
  pest or weed control at 280 g/ha: 100%
Kochia scoparia (KCHSC); [4]
  pest or weed control at 140 g/ha: 80%
  pest or weed control at 280 g/ha: 93%
[3]; AMAPA
  pest or weed control at 140 g/ha: 28%
  pest or weed control at 280 g/ha: 45%
Amaranthus rudis (AMATA)
  pest or weed control at 140 g/ha: 38%
  pest or weed control at 280 g/ha: 50%

## CCN(CC)OC(=O)c1c(Cl)ccc(Cl)c1OC [Compound A-64]
[1]
  pest or weed control at 140 g/ha: 5%
  pest or weed control at 280 g/ha: 12%
[2]; [5]
  pest or weed control at 140 g/ha: 3%
  pest or weed control at 280 g/ha: 10%
Kochia scoparia (KCHSC)
  pest or weed control at 140 g/ha: 0%
  pest or weed control at 280 g/ha: 3%
[3]; [6]
  pest or weed control at 140 g/ha: 3%
  pest or weed control at 280 g/ha: 20%
Amaranthus rudis (AMATA)
  pest or weed control at 140 g/ha: 3%
  pest or weed control at 280 g/ha: 2%

## COc1c(Cl)ccc(Cl)c1C(=O)N1CCCCO1 [Compound A-104]
[1]
  pest or weed control at 140 g/ha: 5%
  pest or weed control at 280 g/ha: 15%
[2]
  pest or weed control at 140 g/ha: 0%
  pest or weed control at 280 g/ha: 10%
Kochia scoparia (KCHSC); [4]
  pest or weed control at 140 g/ha: 3%
  pest or weed control at 280 g/ha: 13%
[3]; AMAPA
  pest or weed control at 140 g/ha: 45%
  pest or weed control at 280 g/ha: 65%
Amaranthus rudis (AMATA)
  pest or weed control at 140 g/ha: 73%
  pest or weed control at 280 g/ha: 92%

## COc1c(Cl)ccc(Cl)c1C(=O)NNc1nc(C)cs1 [Compound A-108]
[1]
  pest or weed control at 140 g/ha: 5%
  pest or weed control at 280 g/ha: 15%
[2]
  pest or weed control at 140 g/ha: 5%
  pest or weed control at 280 g/ha: 8%
Kochia scoparia (KCHSC); [4]
  pest or weed control at 140 g/ha: 0%
  pest or weed control at 280 g/ha: 3%
[3]; AMAPA
  pest or weed control at 140 g/ha: 8%
  pest or weed control at 280 g/ha: 28%
Amaranthus rudis (AMATA)
  pest or weed control at 140 g/ha: 18%
  pest or weed control at 280 g/ha: 28%

## CCCCCCNC(=O)c1c(Cl)ccc(Cl)c1OC [Compound A-128]
[1]
  pest or weed control at 140 g/ha: 3%
  pest or weed control at 280 g/ha: 5%
[2]; [4]
  pest or weed control at 140 g/ha: 3%
  pest or weed control at 280 g/ha: 5%
Kochia scoparia (KCHSC); [4]
  pest or weed control at 140 g/ha: 0%
  pest or weed control at 280 g/ha: 0%
[3]; AMAPA
  pest or weed control at 140 g/ha: 3%
  pest or weed control at 280 g/ha: 5%
Amaranthus rudis (AMATA)
  pest or weed control at 140 g/ha: 3%
  pest or weed control at 280 g/ha: 8%

## COc1c(Cl)ccc(Cl)c1C(=O)NOc1ccc([N+](=O)[O-])cc1 [Compound A-97]
[1]
  pest or weed control at 140 g/ha: 73%
  pest or weed control at 280 g/ha: 90%
[2]
  pest or weed control at 140 g/ha: 18%
  pest or weed control at 280 g/ha: 40%
[2]; [5]
  pest or weed control at 140 g/ha: 75%
  pest or weed control at 280 g/ha: 70%
Kochia scoparia (KCHSC); [4]
  pest or weed control at 140 g/ha: 73%
  pest or weed control at 280 g/ha: 88%
[3]; AMAPA
  pest or weed control at 140 g/ha: 50%
  pest or weed control at 280 g/ha: 65%
Amaranthus rudis (AMATA)
  pest or weed control at 140 g/ha: 55%
  pest or weed control at 280 g/ha: 68%

## COc1c(Cl)ccc(Cl)c1C(=O)n1oc2ccccc2c1=O [Compound A-130]
[1]
  pest or weed control at 140 g/ha: 40%
  pest or weed control at 280 g/ha: 48%
[2]
  pest or weed control at 140 g/ha: 13%
  pest or weed control at 280 g/ha: 28%
Kochia scoparia (KCHSC); [4]
  pest or weed control at 140 g/ha: 45%
  pest or weed control at 280 g/ha: 45%
[3]; AMAPA
  pest or weed control at 140 g/ha: 18%
  pest or weed control at 280 g/ha: 20%
Amaranthus rudis (AMATA)
  pest or weed control at 140 g/ha: 20%
  pest or weed control at 280 g/ha: 28%

## CCc1nnc(OC(=O)c2c(Cl)ccc(Cl)c2OC)s1 [Compound A-119]
[1]
  pest or weed control at 140 g/ha: 5%
  pest or weed control at 280 g/ha: 10%
[2]
  pest or weed control at 140 g/ha: 0%
  pest or weed control at 280 g/ha: 10%
Kochia scoparia (KCHSC); [4]
  pest or weed control at 140 g/ha: 10%
  pest or weed control at 280 g/ha: 3%
[3]; AMAPA
  pest or weed control at 140 g/ha: 8%
  pest or weed control at 280 g/ha: 20%
Amaranthus rudis (AMATA)
  pest or weed control at 140 g/ha: 20%
  pest or weed control at 280 g/ha: 13%

## COc1c(Cl)ccc(Cl)c1C(=O)NNc1ccccc1 [Compound A-131]
[1]
  pest or weed control at 140 g/ha: 48%
  pest or weed control at 280 g/ha: 58%
[2]
  pest or weed control at 140 g/ha: 28%
  pest or weed control at 280 g/ha: 30%
Kochia scoparia (KCHSC); [4]
  pest or weed control at 140 g/ha: 30%
  pest or weed control at 280 g/ha: 38%
[3]; AMAPA
  pest or weed control at 140 g/ha: 23%
  pest or weed control at 280 g/ha: 38%
Amaranthus rudis (AMATA)
  pest or weed control at 140 g/ha: 40%
  pest or weed control at 280 g/ha: 30%

## COc1c(Cl)ccc(Cl)c1C(=O)n1ncc2ccccc21 [Compound A-113]
[1]
  pest or weed control at 140 g/ha: 70%
  pest or weed control at 280 g/ha: 90%
[2]
  pest or weed control at 140 g/ha: 50%
  pest or weed control at 280 g/ha: 99%
Kochia scoparia (KCHSC); [4]
  pest or weed control at 140 g/ha: 85%
  pest or weed control at 280 g/ha: 93%
[3]; AMAPA
  pest or weed control at 140 g/ha: 40%
  pest or weed control at 280 g/ha: 70%
Amaranthus rudis (AMATA)
  pest or weed control at 140 g/ha: 50%
  pest or weed control at 280 g/ha: 63%

## COc1c(Cl)ccc(Cl)c1C(=O)n1cnc2ccccc21 [Compound A-115]
[1]
  pest or weed control at 140 g/ha: 5%
  pest or weed control at 280 g/ha: 28%
[2]
  pest or weed control at 140 g/ha: 3%
  pest or weed control at 280 g/ha: 13%
Kochia scoparia (KCHSC); [4]
  pest or weed control at 140 g/ha: 8%
  pest or weed control at 280 g/ha: 13%
[3]; AMAPA
  pest or weed control at 140 g/ha: 20%
  pest or weed control at 280 g/ha: 38%
Amaranthus rudis (AMATA)
  pest or weed control at 140 g/ha: 15%
  pest or weed control at 280 g/ha: 38%

## COc1c(Cl)ccc(Cl)c1C(=O)n1nc(C)cc1C [Compound A-133]
[1]
  pest or weed control at 140 g/ha: 3%
  pest or weed control at 280 g/ha: 8%
[2]; [4]
  pest or weed control at 140 g/ha: 3%
  pest or weed control at 280 g/ha: 3%
Kochia scoparia (KCHSC); [4]
  pest or weed control at 140 g/ha: 0%
  pest or weed control at 280 g/ha: 20%
[3]; AMAPA
  pest or weed control at 140 g/ha: 10%
  pest or weed control at 280 g/ha: 15%
Amaranthus rudis (AMATA)
  pest or weed control at 140 g/ha: 8%
  pest or weed control at 280 g/ha: 5%

## COc1c(Cl)ccc(Cl)c1C(=O)OCc1cc(COC(=O)c2c(Cl)ccc(Cl)c2OC)cc(COC(=O)c2c(Cl)ccc(Cl)c2OC)c1 [Compound A-123]
[1]
  pest or weed control at 140 g/ha: 5%
  pest or weed control at 280 g/ha: 5%
[2]
  pest or weed control at 140 g/ha: 0%
  pest or weed control at 280 g/ha: 0%
Kochia scoparia (KCHSC); [4]
  pest or weed control at 140 g/ha: 0%
  pest or weed control at 280 g/ha: 0%
[3]; AMAPA
  pest or weed control at 140 g/ha: 2%
  pest or weed control at 280 g/ha: 3%
Amaranthus rudis (AMATA)
  pest or weed control at 140 g/ha: 0%
  pest or weed control at 280 g/ha: 8%

## COc1c(Cl)ccc(Cl)c1C(=O)ON(Cc1ccccc1)Cc1ccccc1 [Compound A-72]
[1]
  pest or weed control at 140 g/ha: 82%
  pest or weed control at 280 g/ha: 98%
[2]; [5]
  pest or weed control at 140 g/ha: 83%
  pest or weed control at 280 g/ha: 92%
Kochia scoparia (KCHSC)
  pest or weed control at 140 g/ha: 82%
  pest or weed control at 280 g/ha: 94%
[3]; [6]
  pest or weed control at 140 g/ha: 72%
  pest or weed control at 280 g/ha: 83%
Amaranthus rudis (AMATA)
  pest or weed control at 140 g/ha: 63%
  pest or weed control at 280 g/ha: 74%

## COc1c(Cl)ccc(Cl)c1C(=O)N1CCOCC1 [Compound A-65]
[1]
  pest or weed control at 140 g/ha: 40%
  pest or weed control at 280 g/ha: 55%
[2]; [5]
  pest or weed control at 140 g/ha: 8%
  pest or weed control at 280 g/ha: 28%
Kochia scoparia (KCHSC)
  pest or weed control at 140 g/ha: 28%
  pest or weed control at 280 g/ha: 37%
[3]; [6]
  pest or weed control at 140 g/ha: 33%
  pest or weed control at 280 g/ha: 33%
Amaranthus rudis (AMATA)
  pest or weed control at 140 g/ha: 15%
  pest or weed control at 280 g/ha: 23%
